This note sets out measurements from patent publication US8846908B2, “Tricyclic carbamate JAK inhibitors” (Rigel Pharmaceuticals, Inc., priority 2008, dated 2014).

For the assay, the target named is BaF3 V617F cells (Homo sapiens, UniProt O60674, V617F, cells depend on it). The assay can be described thus: Proliferation assay, BaF3 V617F cells (Cell Titer-Glo). The assay is classed as cell-based, mouse. Particulars: proliferation for 72 hours at 37° C., stated to show ability to inhibit JAK2 activity, read-out: IC50 (the source's name). As to the method:
BaF3 V617F cells are maintained and plated in RPMI with 10% FBS. Plating density for these cells is 1×10^5 cells/mL.
The cells were resuspended in a corresponding medium at a required cell density (see above). 100μ of cell suspension was added to each well of a flat bottom 96 well white plate. The compound was serially diluted in DMSO from 5 mM in 3-fold dilutions, and then diluted 1:250 in the RPMI 1640 medium containing 5% FBS and pen/strep. 100 μL of resulting 2× compound solution was added per well in duplicate and the cells were allowed to proliferate for 72 hours at 37° C.
Proliferation was measured using Cell Titer-Glo. The substrate was thawed and allowed to come to room temperature. After removal of top 100 μL of medium from each well, 100 μL of the premixed Cell Titer-Glo reagent was added to each well. The plates were mixed on an orbital shaker for three minutes to induce lysis and incubated at ambient temperature for an additional five minutes to allow the signal to equilibrate. The Luminescence was read on the Wallac Plate Reader.
The results of the ability of the compounds of the invention to inhibit JAK2 activity, when tested in the above assay, are shown in the following Table 2 wherein the level of activity (i.e., the IC50) for each compound is indicated in Table 2. The compound numbers in Table 2 refers to the compounds disclosed herein as being prepared by the methods disclosed herein.

BaF3 V617F cells, sequence (O60674 whole entry V617F): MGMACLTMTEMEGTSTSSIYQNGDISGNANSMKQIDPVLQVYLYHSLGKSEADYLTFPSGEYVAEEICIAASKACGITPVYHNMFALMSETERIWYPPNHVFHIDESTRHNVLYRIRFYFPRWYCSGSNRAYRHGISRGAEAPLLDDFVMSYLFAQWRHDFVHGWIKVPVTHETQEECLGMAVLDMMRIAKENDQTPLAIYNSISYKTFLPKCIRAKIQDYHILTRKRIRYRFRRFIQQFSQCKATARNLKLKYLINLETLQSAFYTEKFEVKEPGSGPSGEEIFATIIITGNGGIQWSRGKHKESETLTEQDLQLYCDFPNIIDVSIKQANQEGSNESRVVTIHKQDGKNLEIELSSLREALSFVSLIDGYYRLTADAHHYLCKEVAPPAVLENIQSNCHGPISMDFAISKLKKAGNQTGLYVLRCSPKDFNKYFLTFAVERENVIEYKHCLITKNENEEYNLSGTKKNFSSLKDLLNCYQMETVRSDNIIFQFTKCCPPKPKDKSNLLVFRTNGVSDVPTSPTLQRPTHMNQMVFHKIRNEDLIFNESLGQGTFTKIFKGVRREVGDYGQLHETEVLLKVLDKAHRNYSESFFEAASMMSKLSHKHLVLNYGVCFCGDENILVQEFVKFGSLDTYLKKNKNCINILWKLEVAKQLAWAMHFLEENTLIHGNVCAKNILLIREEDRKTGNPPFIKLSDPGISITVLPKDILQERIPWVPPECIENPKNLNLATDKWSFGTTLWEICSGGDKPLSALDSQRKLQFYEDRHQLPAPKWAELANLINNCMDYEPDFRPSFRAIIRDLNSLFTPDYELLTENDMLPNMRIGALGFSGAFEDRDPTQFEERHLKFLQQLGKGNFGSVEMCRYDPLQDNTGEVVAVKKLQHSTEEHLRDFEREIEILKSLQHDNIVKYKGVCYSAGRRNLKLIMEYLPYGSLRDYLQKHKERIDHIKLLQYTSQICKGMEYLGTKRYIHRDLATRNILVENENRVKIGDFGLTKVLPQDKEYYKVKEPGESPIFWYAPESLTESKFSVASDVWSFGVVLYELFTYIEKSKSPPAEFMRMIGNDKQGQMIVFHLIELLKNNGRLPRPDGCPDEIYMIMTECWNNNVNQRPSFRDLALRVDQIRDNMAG

Regarding `Cc1cnc(Nc2ccc3c(c2)[C@@H]2NC(=O)O[C@@H]2C3)nc1Nc1ccc(OCc2ccccn2)cc1` [Compound 28, 5-Methyl-N2-[(3aS,8aR)-2-oxo-3,3a,8,8a-tetrahydro-2H-indeno[1,2-d]oxazol-5-yl]-N4-[4-(pyridin-2-ylmethoxy)phenyl]-2,4-pyrimidinediamine], the GI50 was in the range of 250 to 500 nM.
The figure for `Cc1cnc(Nc2ccc3c(c2)[C@H]2NC(=O)CO[C@H]2C3)nc1Nc1ccc(CNS(=O)(=O)C2CC2)cc1` [Compound 39, N4-[4-[[N-(Cyclopropylsulfonyl)amino]methyl]phenyl]-5-methyl-N2-[(4aR,9aS)-3-oxo-2,3,4,4a,9a-hexahydroindeno[2,1-b][1,4]oxazin-6-yl]-2,4-pyrimidinediamine] is 250 to 500 nM; for `CN1C(=O)C(C)(C)Oc2ccc(Nc3nc(Nc4ccc5c(c4)[C@@H]4NC(=O)O[C@@H]4C5)ncc3Cl)cc21` [Compound 10, 5-Chloro-N2-[(3aS,8aR)-2-oxo-3,3a,8,8a-tetrahydro-2H-indeno[1,2-d]oxazol-5-yl]-N4-(2,2,4-trimethyl-3-oxo-benz[1,4]oxazin-6-yl)-2,4-pyrimidinediamine] it is less than 250 nM; for `O=C1N[C@@H]2c3cc(Nc4ncc(Cl)c(Nc5cccc6c5CCCC6)n4)ccc3C[C@@H]2O1` [Compound 36, 5-Chloro-N2-[(3aR,8aS)-2-oxo-3,3a,8,8a-tetrahydro-2H-indeno[1,2-d]oxazol-5-yl]-N4-(5,6,7,8-tetrahydronaphthalen-1-yl)2,4-pyrimidinediamine] it is 250 to 500 nM.
The figure for `CCN1C(=O)C(C)(C)Oc2ccc(Nc3nc(Nc4ccc5c(c4)[C@@H]4NC(=O)O[C@@H]4C5)ncc3C)cc21` [Compound 11, N4-(2,2-Dimethyl-4-ethyl-3-oxo-benz[1,4]oxazin-6-yl)-5-methyl-N2-[(3aS,8aR)-2-oxo-3,3a,8,8a-tetrahydro-2H-indeno[1,2-d]oxazol-5-yl]-2,4-pyrimidinediamine] is 250 to 500 nM; for `Cc1cnc(Nc2ccc3c(c2)[C@H]2NC(=O)O[C@H]2C3)nc1Nc1ccc2c(c1)N(C)C(=O)CS2` [Compound 4, 5-Methyl-N4-(4-methyl-3-oxo-2H-benz[1,4]thiazin-6-yl)-N2-[(3aR,8aS)-2-oxo-3,3a,8,8a-tetrahydro-2H-indeno[1,2-d]oxazol-5-yl]-2,4-pyrimidinediamine] it is 500 to 1000 nM; for `Cc1cnc(Nc2ccc3c(c2)[C@H]2NC(=O)O[C@H]2C3)nc1Nc1ccc(OCc2ccccn2)cc1` [Compound 27, 5-Methyl-N2-[(3aR,8aS)-2-oxo-3,3a,8,8a-tetrahydro-2H-indeno[1,2-d]oxazol-5-yl]-N4-[4-(pyridin-2-ylmethoxy)phenyl]-2,4-pyrimidinediamine] it is 250 to 500 nM.
The result for `O=C1N[C@H]2c3cc(Nc4ncc(Cl)c(Nc5cccc6c5OCCO6)n4)ccc3C[C@H]2O1` [Compound 23, N4-(1,4-Benzodioxan-5-yl)-5-chloro-N2-[(3aS,8aR)-2-oxo-3,3a,8,8a-tetrahydro-2H-indeno[1,2-d]oxazol-5-yl]-2,4-pyrimidinediamine] reads 1000 to 5000 nM; that for `Cc1cnc(Nc2ccc3c(c2)[C@@H]2NC(=O)O[C@@H]2C3)nc1Nc1ccc(CNS(=O)(=O)C2CC2)cc1` [Compound 15, N4-[4-[[N-(Cyclopropylsulfonyl)amino]methyl]phenyl]-5-methyl-N2-[(3aS,8aR)-2-oxo-3,3a,8,8a-tetrahydro-2H-indeno[1,2-d]oxazol-5-yl]-2,4-pyrimidinediamine], 1000 to 5000 nM.
For `O=C1N[C@H]2c3cc(Nc4ncc(Cl)c(Nc5ccc(CNS(=O)(=O)C6CC6)cc5)n4)ccc3C[C@H]2O1` [Compound 16, 5-Chloro-N4-[4-[[N-(cyclopropylsulfonyl)amino]methyl]phenyl]-N2-[(3aS,8aR)-2-oxo-3,3a,8,8a-tetrahydro-2H-indeno[1,2-d]oxazol-5-yl]-2,4-pyrimidinediamine], the GI50 fell in the range of 1000 to 5000 nM.
The figure for `O=C1N[C@H]2c3cc(Nc4ncc(F)c(Nc5ccc(OCc6ccccn6)cc5)n4)ccc3C[C@H]2O1` [Compound 30, 5-Fluoro-N2-[(3aS,8aR)-2-oxo-3,3a,8,8a-tetrahydro-2H-indeno[1,2-d]oxazol-5-yl]-N4-[4-(pyridin-2-ylmethoxy)phenyl]-2,4-pyrimidinediamine] is 1000 to 5000 nM; for `Cc1cc(CNS(=O)(=O)C2CC2)ccc1Nc1nc(Nc2ccc3c(c2)[C@@H]2NC(=O)OC2C3)ncc1C` (some centres unmarked) [Compound 18] it is 1000 to 5000 nM; for `O=C1N[C@H]2c3cc(Nc4ncc(Cl)c(Nc5cccc6c5CCCC6)n4)ccc3C[C@H]2O1` [Compound 21, 5-Chloro-N2-[(3aS,8aR)-2-oxo-3,3a,8,8a-tetrahydro-2H-indeno[1,2-d]oxazol-5-yl]-N4-(5,6,7,8-tetrahydronaphthalen-1-yl)2,4-pyrimidinediamine] it is 500 to 1000 nM.
Consider `Cc1cnc(Nc2ccc3c(c2)[C@@H]2NC(=O)O[C@@H]2C3)nc1Nc1cccc2c1OCCO2` [Compound 24, N4-(1,4-Benzodioxan-5-yl)-5-methyl-N2-[(3aS,8aR)-2-oxo-3,3a,8,8a-tetrahydro-2H-indeno[1,2-d]oxazol-5-yl]-2,4-pyrimidinediamine], for which the GI50 was less than 250 nM.
